Holding throughout (assay type): cell-based, human
The test system of series [1] is MYC. The series can be described thus: Western blot of MYC in COLO-320DM. The following applies: COLO320DM. The procedure: For whole-cell lysate, the cell pellet was resuspended in RIPA buffer (Cell Signaling Technologies, Danvers, MA) supplemented with a protease inhibitor cocktail (Cell Signaling Technologies) and incubated on ice for 20 minutes. The lysate was then centrifuged at 14,000 revolutions/minute for 10 minutes at 4°C, and the supernatant was harvested. Protein concentration was quantified by BCA Protein Assay Kit (Thermo Fisher Scientific) as per kit protocol. Next, 20 μg of whole-cell lysate was electrophoresed on a 4%–20% gradient polyacrylamide gel with SDS (Bio-Rad, Hercules, CA) and electroblotted onto polyvinylidene difluoride membranes (Bio-Rad). Membranes were blocked in Tris-buffered saline with 5% nonfat milk and 0.1% Tween and probed with antibodies. Bound proteins were detected with horseradish-peroxidase–conjugated secondary antibodies (Cell Signaling Technologies) and SuperSignal West Femto (Thermo Fisher Scientific). […]
The HNB ORF and eGFP (control) were cloned in an inducible lentivirus expression, TRE-gateway plasmid (pLIX_403, Addgene, #41395). […] The protein lysates were collected and quantified using the previously described protocol. […] Bound proteins were detected with horseradish-peroxidase–conjugated secondary antibodies (Cell Signaling Technologies) and SuperSignal West Femto (Thermo Fisher Scientific). […]
(In general: In western blotting, separated proteins are transferred to a membrane and probed.)

The next series has as its system COLO-320DM cells. In words: Proliferation assay COLO-320DM. The following applies: COLO320DM.
The next series concerns D458 cells. In words: Proliferation assay D458.
Series [2] concerns MYC. In words: Western blot of MYC in D458. The procedure:
For whole-cell lysate, the cell pellet was resuspended in RIPA buffer (Cell Signaling Technologies, Danvers, MA) supplemented with a protease inhibitor cocktail (Cell Signaling Technologies) and incubated on ice for 20 minutes. The lysate was then centrifuged at 14,000 revolutions/minute for 10 minutes at 4°C, and the supernatant was harvested. Protein concentration was quantified by BCA Protein Assay Kit (Thermo Fisher Scientific) as per kit protocol. Next, 20 μg of whole-cell lysate was electrophoresed on a 4%–20% gradient polyacrylamide gel with SDS (Bio-Rad, Hercules, CA) and electroblotted onto polyvinylidene difluoride membranes (Bio-Rad). Membranes were blocked in Tris-buffered saline with 5% nonfat milk and 0.1% Tween and probed with antibodies. Bound proteins were detected with horseradish-peroxidase–conjugated secondary antibodies (Cell Signaling Technologies) and SuperSignal West Femto (Thermo Fisher Scientific). Antibodies used were anti-c-MYC (Cell Signaling Technology, 5605, anti-Phospho-c-MYC (Ser62) (Cell Signaling Technology, 13748), anti-β ACTIN (Cell Signaling Technology, 8457), anti-Phospho-p44/42 (Erk1/2) (Thr202/Tyr204) (Cell Signaling Technology, 4370), anti-p44/42 (Erk1/2) (Cell Signaling Technology, 4695), anti-Phospho-MEK1/2 (Ser217/221) (Cell Signaling Technology, 9154), anti-MEK1/2 (Cell Signaling Technology, 9122), anti-Phospho-p90RSK (Ser380) (Cell Signaling Technology, 11989), anti-RSK1/RSK2/RSK3 (Cell Signaling Technology, 9355), Anti-Rabbit IgG, HRP-linked Antibody (Cell Signaling Technology, 7074). Anti-FFX (Firefox) monoclonal antibodies were custom produced by Proteintech using FFX residues 13–104 as epitope.
The HNB ORF and eGFP (control) were cloned in an inducible lentivirus expression, TRE-gateway plasmid (pLIX_403, Addgene, #41395). Lentivirus was produced in HEK293T cells using the protocol described above. D458, NCI-H1792 and COLO 320DM cells were transfected with inducible HNB lentivirus and selected with 1 μg/mL concentration of Puromycin. Selected cells were seeded at a concentration of 4 × 10^5 cells per well. After 24 hours of seeding, the cells were treated with 1 μg/mL Doxycycline for 48 hours. The cells were then lysed using RIPA buffer and 1X protease inhibitor cocktail. The protein lysates were collected and quantified using the previously described protocol. 20 μg of whole-cell lysate was electrophoresed on a 4%–20% gradient polyacrylamide gel with SDS (Bio-Rad, Hercules, CA) and electroblotted onto polyvinylidene difluoride membranes (Bio-Rad). […] Bound proteins were detected with horseradish-peroxidase–conjugated secondary antibodies (Cell Signaling Technologies) and SuperSignal West Femto (Thermo Fisher Scientific). […]

In the next series the test system is SK-PN-DW cells. The series can be described thus: Proliferation assay SK-PN-DW. The following applies: si.CircPVT1 vs si.Ctrl, n=3, two-way ANOVA, P<0.0001. An excerpt:
Cancer cell lines: COLO-320DM, SK-PN-DW, U2OS, BxPC-3, DU145, SKBR-3 and, NCI-H1792 were obtained from American Type Culture Collection (Rockville, MD) and grown in their required growth medium per the American Type Culture Collection description. D458 and MB002 were obtained from Dr. Michael Taylor’s lab at SickKids hospital, Toronto. Cell line identity for the master stocks were verified by STR genotyping (IDEXX BioResearch)

In series [3] the test system is HALLMARK_MTORC1_SIGNALING
The series can be described thus: GSEA MTORC1 signaling, SK-PN-DW. The following applies: si.CircPVT1 vs si.Ctrl, n=3, Padj = 0.010. An excerpt: RNAseq processing: Raw reads were mapped to the hg19 human reference genome using the STAR aligner (v.2.5.0a) 66. PCR-duplicated reads and low mapping quality reads (MQ score below 20) were removed using Picard tools and SAMtools, respectively. Aligned reads were counted using htseq-count (v.0.6.1p1) 69 and normalized according to size factors method from DESeq2 70. We used fold change ≥2 and FDR <0.05 as the determination of differentially expressed genes (DEG). Statistical analysis and plots were performed inside R environment version 3.1.0. upload files) […]
bioRxiv preprint doi: https://doi.org/10.1101/2025.02.17.638454; this version posted February 22, 2025. The copyright holder for this preprint (which was not certified by peer review) is the author/funder, who has granted bioRxiv a license to display the preprint in perpetuity. It is made available under a CC-BY 4.0 International license . […]
Supplementary Figure 11: Gene set enrichment analysis scores (GSEA) analysis of genes involved in MTORC 1 signaling in COLO320DM (A) and SK-PN-DW (B) treated with si.CircPVT 1. si.Ctrl was used as control. n=3, for each treatment condition .
(also on this page, place not known: SK-PN-DWB MTORC1 si.CircPVT1. condition. Enrichment Score Enrichment Score .CC-BY licenseavailable preprintthis https://doi.org/10.1101/2025.02.17.638454doi:) […]

No end group written: not given here.

Consider MKTQLGAVKGFLHV [HNB], for which the MYC protein level entry in the series with MYC [1] (induction of HNB (-/+ Dox)) is listed as “significantly reduced MYC expression at the mRNA as well as the protein levels”; in the series on MYC [2] (D458, induction of HNB (-/+ Dox)) it was “significantly reduced MYC expression at the mRNA as well as the protein levels”. The cellular proliferation entry is recorded as “significantly reduced cellular proliferation” with COLO-320DM cells (induction of HNB (-/+ Dox), P=0.0002) and “significantly reduced cellular proliferation” with D458 cells (D458, induction of HNB or HNB mutant (+/- Dox)).

As to “si.CircPVT1: siRNA targeting the junction sequence of CircPVT1, 5’-UGGGCUUGAGGCCUGAUCUUU-3’ (other strand not given here)”, the cellular proliferation result with SK-PN-DW cells is “reduced cellular proliferation”; with COLO-320DM cells (si.CircPVT1 vs si.Ctrl, n=3, two-way ANOVA, P<0.0001), “reduced cellular proliferation”; with D458 cells (D458, transfection with si.CircPVT1 vs si.Ctrl, n=3, two-way ANOVA) it was “reduced cellular proliferation”. Also, the MYC protein result in the series with MYC [1] (si.CircPVT1 vs si.Ctrl, n=3, unpaired t test, <0.0001) was “significant reduction of MYC protein”; in the series with MYC [2] (D458, si.CircPVT1 vs si.Ctrl, n=3, unpaired t test) it was “significant reduction of MYC protein”. In series [3], the “NES, HALLMARK_MTORC1_SIGNALING” value is given as -1.859.

Values taken from paper doi:10.1101/2025.02.17.638454, “Synergistic RAS-MAPK and AKT Activation in MYC-Driven Tumors via Adjacent PVT1 Rearrangements” (bioRxiv, 2025).
